The first assay deals with AMPK. The experiment in a line: AMPK activation, enzyme-linked immunosorbent assay. The class given is biochemical. Conditions: Table 8, compounds of Table 1. In a few lines:
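Read-out: ELISA, used to detect compound-driven activation of AMPK.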
In the case of `O=C(NC1CCN(Cc2ccc(F)cc2)CC1)c1cncc(OC2CCN(c3ccc(C(F)(F)F)cc3)CC2)c1` [Compound 1-16, N-(1-(4-fluorobenzyl)piperidin-4-yl)-5-(1-(4-(trifluoromethyl)phenyl)piperidin-4-yloxy)nicotinamide], the EC50 (commonly the concentration needed to bring the measured effect to its halfway point) was less than 100 nM. On the same count and under the same terms, with `O=C(NC1CCN(S(=O)(=O)c2cccnc2)CC1)c1cc2ccc(OC3CCN(c4ccc(OC(F)(F)F)cc4)CC3)cc2o1` [Compound 1-108, N-(1-(pyridin-3-ylsulfonyl)piperidin-4-yl)-6-(1-(4-(trifluoromethoxy)phenyl)piperidin-4-yloxy)benzofuran-2-carboxamide] the figure was 100 to 500 nM.

On to `O=C(NC1CCN(Cc2ccncc2)CC1)c1cc2cc(OC3CCN(c4ccc(C(F)(F)F)cc4)CC3)ccc2s1` [Compound 1-138, N-(1-(pyridin-4-ylmethyl)piperidin-4-yl)-5-(1-(4-(trifluoromethyl)phenyl)piperidin-4-yloxy)benzo [b]thiophene-2-carboxamide], for which the EC50 is less than 100 nM.

As for `CC(C)(C)OC(=O)N1CCC(NC(=O)c2ccc(OC3CCN(c4ccc(C(F)(F)F)cc4)CC3)nc2)CC1` [Compound 1-9, tert-butyl 4-(6-(1-(4-(trifluoromethyl)phenyl)piperidin-4-yloxy)nicotinamido) piperidine-1-carboxylate], the EC50 was 100 to 500 nM. `CC(C)(C)OC(=O)N1CCC(NC(=O)c2cc3ccc(OC4CCN(c5ccc(OC(F)(F)F)cc5)CC4)cc3o2)CC1` [Compound 1-81, tert-butyl 4-(6-(1-(4-(trifluoromethoxy)phenyl)piperidin-4-yloxy)benzofuran-2-carboxamido) piperidine-1-carboxylate] gave an EC50 of 100 to 500 nM. In the case of `O=S(=O)(NC1CCN(Cc2cccc(C(F)(F)F)c2)CC1)c1ccc(OC2CCN(c3ccc(C(F)(F)F)cc3)CC2)nc1` [Compound 1-59, N-(1-(3-(trifluoromethyl)benzyl)piperidin-4-yl)-6-(1-(4-(trifluoromethyl)phenyl)piperidin-4-yloxy)pyridine-3-sulfonamide], the EC50 fell in the range of 100 to 500 nM. The same measure, in the same setting: next, `CC(C)(C)OC(=O)N1CC[C@H](NC(=O)c2ccc(OC3CCN(c4ccc(C(F)(F)F)cc4)CC3)cn2)C1` [Compound 1-26, (S)-tert-butyl 3-(5-(1-(4-(trifluoromethyl)phenyl)piperidin-4-yloxy)picolinamido) pyrrolidine-1-carboxylate]: 100 to 500 nM; `N#Cc1ccc(CN2CC(NC(=O)c3ccc(OC4CCN(c5ccc(C(F)(F)F)cc5)CC4)cn3)C2)cc1` [Compound 1-41, N-(1-(4-cyanobenzyl)azetidin-3-yl)-5-(1-(4-(trifluoromethyl)phenyl)piperidin-4-yloxy)picolinamide]: 100 to 500 nM. `O=C(NC1CCNCC1)c1cc2cc(OC3CCN(c4ccc(C(F)(F)F)cc4)CC3)ccc2s1` [Compound 1-150, N-(piperidin-4-yl)-5-(1-(4-(trifluoromethyl)phenyl)piperidin-4-yloxy)benzo [b]thiophene-2-carboxamide] had an EC50 of 1000 to 5000 nM. Still for that read-out and setting: with `N#Cc1ccc(CN2CCC(NC(=O)c3cc4cc(OC5CCN(Cc6cnn(-c7ccc(C#N)cc7)c6)CC5)ccc4o3)CC2)cc1` [Compound 1-162, N-(1-(4-cyanobenzyl)piperidin-4-yl)-5-(1-((1-(4-cyanophenyl)-1H-pyrazol-4-yl)methyl)piperidin-4-yloxy)benzofuran-2-carboxamide] the figure was less than 100 nM; with `O=C(NC1CCN(Cc2ccccn2)CC1)c1cc2ccc(OC3CCN(c4ccc(C(F)(F)F)cc4)CC3)cc2o1` [Compound 1-93, N-(1-(pyridin-2-ylmethyl)piperidin-4-yl)-6-(1-(4-(trifluoromethyl)phenyl)piperidin-4-yloxy)benzofuran-2-carboxamide], 100 to 500 nM; with `O=C(NC1CCN(Cc2ccncc2)CC1)c1cc2cc(OC3CCN(c4ccc(OC(F)(F)F)cc4)CC3)ccc2s1` [Compound 1-137, N-(1-(pyridin-4-ylmethyl)piperidin-4-yl)-5-(1-(4-(trifluoromethoxy)phenyl)piperidin-4-yloxy)benzo [b]thiophene-2-carboxamide], less than 100 nM.

In turn, `O=C(NC1CCN(Cc2ccc(F)cc2)CC1)c1ccnc(OC2CCN(c3ccc(C(F)(F)F)cc3)CC2)c1` [Compound 1-22, N-(1-(4-fluorobenzyl)piperidin-4-yl)-2-(1-(4-(trifluoromethyl)phenyl)piperidin-4-yloxy) isonicotinamide] registered an EC50 of 1000 to 5000 nM.

The same assay, now with this note: Table 9, compounds of Table 2.
The compound `N#Cc1ccc(NC(=O)N2CCC(NC(=O)c3ccc4[nH]c5c(c4c3)CN(Cc3ccc(C(F)(F)F)cc3)CC5)CC2)cc1` [Compound 2-27, N-(1-(4-cyanophenylcarbamoyl)piperidin-4-yl)-2-(4-(trifluoromethyl)benzyl)-2,3,4,5-tetrahydro-1H-pyrido[4,3-b]indole-8-carboxamide] had an EC50 of 1000 to 5000 nM.

Still in this assay, the particulars now being: Table 10, compounds of Table 3.
`N#Cc1ccc(CN2CCc3ccc(C(=O)NC4CCN(Cc5cccnc5)CC4)cc3C2)cc1` [Compound 3-38, 2-(4-cyanobenzyl)-N-(1-(pyridin-3-ylmethyl)piperidin-4-yl)-1,2,3,4-tetrahydroisoquinoline-7-carboxamide] displayed an EC50 of less than 100 nM.

Staying with this assay, now noted: Table 12, compounds of Table 5.
On to `CC(C)(C)c1ccc(CN2CCC(Oc3ccc(C(=O)NC4CCN(c5ccccc5)CC4)cc3F)CC2)cc1` [Compound 5-36, 4-(1-(4-tert-butylbenzyl)piperidin-4-yloxy)-3-fluoro-N-(1-phenylpiperidin-4-yl)benzamide], for which the EC50 is less than 1000 nM. Still for that read-out and setting: next, `N#Cc1ccc(CN2CCC(Oc3ccc(C(=O)NC4CCN(Cc5ccncc5)CC4)cc3)CC2)cc1` [Compound 5-83, 4-(1-(4-cyanobenzyl)piperidin-4-yloxy)-N-(1-(pyridin-4-ylmethyl)piperidin-4-yl)benzamide]: less than 1000 nM. `COc1cc(C(=O)NC2CCN(Cc3ccccc3)CC2)ccc1OC1CCN(c2ccco2)CC1` [Compound 5-12, N-(1-benzylpiperidin-4-yl)-3-methoxy-4-(1-(furan-2-yl)piperidin-4-yloxy)benzamide] displayed an EC50 of 1000 to 10000 nM. The same measure, in the same setting: next, `CC(C)(C)c1ccc(CN2CCC(Oc3ccc(C(=O)NC4CCN(Cc5ccccc5)CC4)cc3Cl)CC2)cc1` [Compound 5-16, N-(1-benzylpiperidin-4-yl)-4-(1-(4-tert-butylbenzyl)piperidin-4-yloxy)-3-chlorobenzamide]: less than 1000 nM. Same read-out and setting: with `N#Cc1ccc(CN2CCC(NC(=O)c3cccc(OC4CCN(Cc5ccc(-c6ccccn6)cc5)CC4)c3)CC2)cc1` [Compound 5-118, N-(1-(4-cyanobenzyl)piperidin-4-yl)-3-(1-(4-(pyridin-2-yl)benzyl)piperidin-4-yloxy)benzamide] the figure was less than 1000 nM. On the same count and under the same terms, next, `COc1ccc(CN2CCC(Oc3ccc(C(=O)NC4CCN(Cc5ccccc5)CC4)cc3Cl)CC2)cc1` [Compound 5-1, N-(1-benzylpiperidin-4-yl)-3-chloro-4-(1-(4-methoxybenzyl)piperidin-4-yloxy)benzamide]: less than 1000 nM; `O=C(NC1CCN(Cc2ccccc2)CC1)c1ccc(OC2CCN(Cc3ccc4c(c3)OCCO4)CC2)c(Cl)c1` [Compound 5-15]: less than 1000 nM.

Staying with this assay, now noted: Table 13, compounds of Table 6.
`CS(=O)(=O)c1ccc(CN2CCN(C(=O)c3ccc4oc(C(=O)NC5CCN(Cc6ccc(S(=O)(=O)N7CCCC7)cc6)CC5)cc4c3)CC2)cc1` [Compound 6-159, 5-(4-(4-(methylsulfonyl)benzyl)piperazine-1-carbonyl)-N-(1-(4-(pyrrolidin-1-ylsulfonyl)benzyl)piperidin-4-yl)benzofuran-2-carboxamide]: the EC50 fell in the range of 1000 to 10000 nM. The compound `COc1ccc(CN2CCC(NC(=O)c3cc4cc(C(=O)N5CCN(Cc6ccc(S(=O)(=O)C7CC7)cc6)CC5)ccc4o3)CC2)cc1F` [Compound 6-131, 5-(4-(4-(cyclopropylsulfonyl)benzyl)piperazine-1-carbonyl)-N-(1-(3-fluoro-4-methoxybenzyl)piperidin-4-yl)benzofuran-2-carboxamide] had an EC50 of less than 100 nM. Same read-out and setting: with `N#Cc1ccc(CN2CCC(NC(=O)c3cc4cc(NC(=O)[C@H]5CC[C@@H](Oc6ccc(C#N)cc6)CC5)ccc4o3)CC2)cc1` [Compound 6-69, N-(1-(4-cyanobenzyl)piperidin-4-yl)-5-((1s,4s)-4-(4-cyanophenoxy)cyclohexanecarboxamido) benzofuran-2-carboxamide] the figure was less than 100 nM; with `O=C(NC1CCN(Cc2ccc(OC(F)(F)F)c(F)c2)CC1)c1cc2cc(C(=O)N3CCN(c4cccc(C(F)(F)F)c4)CC3)ccc2o1` [Compound 6-139, N-(1-(3-fluoro-4-(trifluoromethoxy)benzyl)piperidin-4-yl)-5-(4-(3-(trifluoromethyl)phenyl)piperazine-1-carbonyl) benzofuran-2-carboxamide], less than 100 nM. `CS(=O)(=O)c1ccc(OC2CCN(C(=O)c3ccc4oc(C(=O)N[C@@H]5CCN(Cc6ccc(OC(F)(F)F)cc6)C[C@H]5F)cc4c3)CC2)cc1` [Compound 6-155, N-((3,4-trans)-3-fluoro-1-(4-(trifluoromethoxy)benzyl)piperidin-4-yl)-5-(4-(4-(methylsulfonyl)phenoxy)piperidine-1-carbonyl) benzofuran-2-carboxamide] returned an EC50 of less than 100 nM.

Still in this assay, the particulars now being: Table 14, compounds of Table 7.
As for `N#Cc1ccc(OC2CCN(C(=O)c3ccc(C(=O)Nc4ccc(Oc5ccc(S(F)(F)(F)(F)F)cc5)nc4)nc3)CC2)cc1` [Compound 7-5, 5-(4-(4-cyanophenoxy)piperidine-1-carbonyl)-N-(6-(4-(pentafluorosulfanyl)phenoxy)pyridin-3-yl)picolinamide], the concentration giving a half-maximal response (EC50) was less than 1000 nM.

As to `O=C(NC1CCN(Cc2ccc(OC(F)(F)F)cc2)C[C@H]1F)c1ccc(C(=O)N2CCC(C(=O)c3ccc(N4CCCC4)cc3)CC2)nc1` (stereo partly drawn) [Compound 7-57, N-((3,4-trans)-3-fluoro-1-(4-(trifluoromethoxy)benzyl)piperidin-4-yl)-6-(4-(4-(pyrrolidin-1-yl)benzoyl)piperidine-1-carbonyl) nicotinamide], the EC50 is less than 1000 nM. Still for that read-out and setting: next, `N#Cc1ccc(CN2CCC(NC(=O)c3ccc(C(=O)N4CCC(C(=O)c5ccc(-n6cccn6)cc5)CC4)nc3)[C@H](F)C2)cc1` (stereo partly drawn) [Compound 7-68, 6-(4-(4-(lH-pyrazol-1-yl)benzoyl)piperidine-1-carbonyl)-N-((3,4-trans)-1-(4-cyanobenzyl)-3-fluoropiperidin-4-yl)nicotinamide]: less than 1000 nM.

Values taken from patent publication US9409884B2 (Rigel Pharmaceuticals, Inc., priority 2012, dated 2016).
